# *1 amine or outer side, *2 acyl side, *3 side chain or, on linkers, in order; H or OH if unused. Where a SMILES comes first, the peptide text is derived from it. Bridges are numbered along the chain shown (N, C = ends). [ ]: non-standard residue; d: D form. The star is where a group is joined. ξ: configuration not given here. Phe(4-COOH) = N[C@@H](Cc1ccc(C(=O)O)cc1)C(=O)O; Bip = N[C@@H](Cc1ccc(-c2ccccc2)cc1)C(=O)O; γGlu = O=C(O)[C@H](CCC(=O)[*:2])N[*:1]; 3Pal = N[C@@H](Cc1cccnc1)C(=O)O; 4Pal = N[C@@H](Cc1ccncc1)C(=O)O; Cha = N[C@@H](CC1CCCCC1)C(=O)O; Ile(3ξ) = CCC(C)[C@H](N)C(=O)O; Thr(3ξ) = CC(O)[C@H](N)C(=O)O; Carboxymethyl = O=C(O)C*; NMeA = CN[C@@H](C)C(=O)O; Orn = NCCC[C@H](N)C(=O)O; dDap = NC[C@@H](N)C(=O)O; Aun = NCCCCCCCCCCC(=O)O; Dab = NCC[C@H](N)C(=O)O; Dap = NC[C@H](N)C(=O)O; AEEA = NCCOCCOCC(=O)O
# Target: T1, PD-1/PD-L1 interaction (PE-labeled human PD-L1-Ig binding to Jurkat cell line over-expressing human PD-1) (Homo sapiens, UniProt Q15116)
# T1 construct: expressed in transfected cells; host or cells: Jurkat
# T1 sequence (Q15116 25-288): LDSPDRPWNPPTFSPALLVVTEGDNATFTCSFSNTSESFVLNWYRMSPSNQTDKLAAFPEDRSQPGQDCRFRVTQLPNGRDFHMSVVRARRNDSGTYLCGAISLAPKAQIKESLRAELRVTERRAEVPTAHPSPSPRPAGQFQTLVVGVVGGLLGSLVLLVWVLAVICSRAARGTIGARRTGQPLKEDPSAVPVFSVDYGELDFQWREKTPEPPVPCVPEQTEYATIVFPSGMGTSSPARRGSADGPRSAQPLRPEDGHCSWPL
# Test: Jurkat-PD-1 Cell Binding High-Content Screening Assay (CBA)
# Conditions: Jurkat-hPD-1 cells, PE-labeled PD-L1-Ig 20 nM final; read-out: Jurkat HPD1 PDL1 IC50
# Method in brief: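 Cells 8×10^3/well, DMEM + 10% FCS; cpd 2 h, 37 °C; PE–PD-L1-Ig 20 nM final, 1 h; PFA fix + Hoechst 33342, 3× dPBS wash; high-content imager.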
row,SMILES,IC50 [µM]
1,CCC(C)[C@@H]1NC(=O)[C@H](Cc2ccc(-c3ccccc3)cc2)NC(=O)[C@H](C(C)C)NC(=O)[C@H](Cc2c[nH]c3ccccc23)NC(=O)[C@H](CC(=O)O)NC(=O)[C@H](Cc2ccc(O)cc2)NC(=O)[C@H](CC(N)=O)NC(=O)CSC[C@@H](C(=O)N[C@H](CC(N)=O)C(=O)NCCOCCOCC(=O)NCCCCCCCCCCC(=O)O)NC(=O)[C@H](CO)NC(=O)[C@H](C(C)C)NC(=O)[C@H](CC(C)C)NC(=O)[C@H](CCN)NC(=O)[C@@H](CC(C)C)NC(=O)[C@H](C)N(C)C1=O (stereo partly drawn) [Example 2059] ({CH2CO}-NYDWV[Bip][Ile(3ξ)][NMeA][dL][Dab]LVSC[dN][AEEA][Aun]-OH; thioether N-14),0.0342
2,CCC(C)[C@@H]1NC(=O)[C@H](Cc2ccc(-c3ccccc3)cc2)NC(=O)[C@H](C(C)C)NC(=O)[C@H](Cc2c[nH]c3ccccc23)NC(=O)[C@H](CC(=O)O)NC(=O)[C@H](Cc2ccc(OCC(=O)O)cc2)NC(=O)[C@H](Cc2cccnc2)NC(=O)CSC[C@@H](C(=O)N[C@H](CC(N)=O)C(=O)NCCOCCOCC(=O)N[C@@H](CCC(=O)N[C@@H](CCCN)C(=O)NCCCCCCCCCCC(=O)O)C(=O)O)NC(=O)[C@H](CO)NC(=O)[C@H](C(C)C)NC(=O)[C@H](CC(C)C)NC(=O)[C@H](CCN)NC(=O)[C@@H](CC(C)C)NC(=O)[C@H](C)N(C)C1=O (stereo partly drawn) [Example 2060] ({CH2CO}-[3Pal]Y(Carboxymethyl)DWV[Bip][Ile(3ξ)][NMeA][dL][Dab]LVSC[dN][AEEA][γGlu][Orn][Aun]-OH; thioether N-14),0.078
3,CCC(C)[C@@H]1NC(=O)[C@H](Cc2ccc(-c3ccccc3)cc2)NC(=O)[C@H](CC(C)C)NC(=O)[C@H](Cc2c[nH]c3ccccc23)NC(=O)[C@H](CC(=O)O)NC(=O)[C@H](Cc2ccc(O)cc2)NC(=O)[C@H](Cc2ccncc2)NC(=O)CSC[C@@H](C(=O)N[C@H](CC(N)=O)C(=O)NCCOCCOCC(=O)N[C@@H](CCN)C(=O)NCCOCCOCC(=O)NCCCCCCCCCCC(=O)O)NC(=O)[C@H](CO)NC(=O)[C@H](C(C)C)NC(=O)[C@H](CC(C)C)NC(=O)[C@H](CC(N)=O)NC(=O)[C@@H](CC(C)C)NC(=O)[C@H](C)N(C)C1=O (stereo partly drawn) [Example 2061] ({CH2CO}-[4Pal]YDWL[Bip][Ile(3ξ)][NMeA][dL]NLVSC[dN][AEEA][Dab][AEEA][Aun]-OH; thioether N-14),0.777
4,CCC(C)[C@@H]1NC(=O)[C@H](Cc2ccc(-c3ccccc3)cc2)NC(=O)[C@H](CC(C)C)NC(=O)[C@H](Cc2c[nH]c3ccccc23)NC(=O)[C@H](CC(=O)O)NC(=O)[C@H](Cc2ccc(OCC(=O)O)cc2)NC(=O)[C@H](Cc2ccncc2)NC(=O)CSC[C@@H](C(=O)NCCOCCOCC(=O)N[C@@H](CCCN)C(=O)NCCCCCCCCCCC(=O)O)NC(=O)[C@H](CO)NC(=O)[C@H](C(C)C)NC(=O)[C@H](CC(C)C)NC(=O)[C@H](CC(N)=O)NC(=O)[C@@H](CC(C)C)NC(=O)[C@H](C)N(C)C1=O (stereo partly drawn) [Example 2062] ({CH2CO}-[4Pal]Y(Carboxymethyl)DWL[Bip][Ile(3ξ)][NMeA][dL]NLVSC[AEEA][Orn][Aun]-OH; thioether N-14),0.0381
5,CCC(C)[C@@H]1NC(=O)[C@H](Cc2ccc(-c3ccccc3)cc2)NC(=O)[C@H](CC(C)C)NC(=O)[C@H](Cc2c[nH]c3ccccc23)NC(=O)[C@H](CC(=O)O)NC(=O)[C@H](Cc2ccc(O)cc2)NC(=O)[C@H](CC(N)=O)NC(=O)CSC[C@@H](C(=O)N[C@H](CC(N)=O)C(=O)NCCOCCOCC(=O)NCCCCCCCCCCC(=O)O)NC(=O)[C@H](CO)NC(=O)[C@H](C(C)C)NC(=O)[C@H](CC(C)C)NC(=O)[C@H](CCN)NC(=O)[C@@H](CC(C)C)NC(=O)[C@H](C)N(C)C1=O (stereo partly drawn) [Example 2063] ({CH2CO}-NYDWL[Bip][Ile(3ξ)][NMeA][dL][Dab]LVSC[dN][AEEA][Aun]-OH; thioether N-14),0.065
6,CCC(C)[C@@H]1NC(=O)[C@H](Cc2ccc(-c3ccccc3)cc2)NC(=O)[C@H](CC(C)C)NC(=O)[C@H](Cc2c[nH]c3ccccc23)NC(=O)[C@H](CC(=O)O)NC(=O)[C@H](Cc2ccc(OCC(=O)O)cc2)NC(=O)[C@H](Cc2ccncc2)NC(=O)CSC[C@@H](C(=O)N[C@H](CC(N)=O)C(=O)NCCOCCOCC(=O)NCCCCCCCCCCC(=O)O)NC(=O)[C@H](CO)NC(=O)[C@H](C(C)C)NC(=O)[C@H](CC(C)C)NC(=O)[C@H](CCN)NC(=O)[C@@H](CC(C)C)NC(=O)[C@H](C)N(C)C1=O (stereo partly drawn) [Example 2064] ({CH2CO}-[4Pal]Y(Carboxymethyl)DWL[Bip][Ile(3ξ)][NMeA][dL][Dab]LVSC[dN][AEEA][Aun]-OH; thioether N-14),0.0211

# The remaining lines, values ahead:
row,IC50 [µM],SMILES
1,0.0173,CCC(C)[C@@H]1NC(=O)[C@H](Cc2ccc(-c3ccccc3)cc2)NC(=O)[C@H](CC(C)C)NC(=O)[C@H](Cc2c[nH]c3ccccc23)NC(=O)[C@H](CC(=O)O)NC(=O)[C@H](Cc2ccc(C(=O)O)cc2)NC(=O)[C@H](Cc2ccc(OCC(=O)O)cc2)NC(=O)CSC[C@@H](C(=O)N[C@H](CC(N)=O)C(=O)NCCOCCOCC(=O)NCCCCCCCCCCC(=O)O)NC(=O)[C@H](CO)NC(=O)[C@H](C(C)C)NC(=O)[C@H](CC2CCCCC2)NC(=O)[C@H](CCN)NC(=O)[C@@H](CC(C)C)NC(=O)[C@H](C)N(C)C1=O (stereo partly drawn) [Example 2065] ({CH2CO}-Y(Carboxymethyl)[Phe(4-COOH)]DWL[Bip][Ile(3ξ)][NMeA][dL][Dab][Cha]VSC[dN][AEEA][Aun]-OH; thioether N-14)
2,0.11,CCC(C)[C@@H]1NC(=O)[C@H](Cc2ccc(-c3ccccc3)cc2)NC(=O)[C@H](CC(C)C)NC(=O)[C@H](Cc2c[nH]c3ccccc23)NC(=O)[C@H](CC(=O)O)NC(=O)[C@H](Cc2ccc(C(=O)O)cc2)NC(=O)[C@H](Cc2ccc(OCC(=O)O)cc2)NC(=O)CSC[C@@H](C(=O)NCCOCCOCC(=O)N[C@@H](CN)C(=O)NCCCCCCCCCCC(=O)O)NC(=O)[C@H](CO)NC(=O)[C@H](C(C)C)NC(=O)[C@H](CC2CCCCC2)NC(=O)[C@H](CC(N)=O)NC(=O)[C@@H](CC(C)C)NC(=O)[C@H](C)N(C)C1=O (stereo partly drawn) [Example 2066] ({CH2CO}-Y(Carboxymethyl)[Phe(4-COOH)]DWL[Bip][Ile(3ξ)][NMeA][dL]N[Cha]VSC[AEEA][Dap][Aun]-OH; thioether N-14)
3,0.0352,CCC(C)[C@@H]1NC(=O)[C@H](Cc2ccc(-c3ccccc3)cc2)NC(=O)[C@H](C(C)C)NC(=O)[C@H](Cc2c[nH]c3ccccc23)NC(=O)[C@H](CC(=O)O)NC(=O)[C@H](Cc2ccc(OCC(=O)O)cc2)NC(=O)[C@H](Cc2ccncc2)NC(=O)CSC[C@@H](C(=O)N[C@H](CN)C(=O)NCCOCCOCC(=O)N[C@@H](CCC(=O)NCCCCCCCCCCC(=O)O)C(=O)O)NC(=O)[C@H](CO)NC(=O)[C@H](C(C)C)NC(=O)[C@H](CC2CCCCC2)NC(=O)[C@H](CC(N)=O)NC(=O)[C@@H](CC(C)C)NC(=O)[C@H](C)N(C)C1=O (stereo partly drawn) [Example 2067] ({CH2CO}-[4Pal]Y(Carboxymethyl)DWV[Bip][Ile(3ξ)][NMeA][dL]N[Cha]VSC[dDap][AEEA][γGlu][Aun]-OH; thioether N-14)
4,0.106,CCC(C)[C@@H]1NC(=O)[C@H](Cc2ccc(-c3ccccc3)cc2)NC(=O)[C@H](C(C)C)NC(=O)[C@H](Cc2c[nH]c3ccccc23)NC(=O)[C@H](CC(=O)O)NC(=O)[C@H](Cc2ccc(O)cc2)NC(=O)[C@H](Cc2ccncc2)NC(=O)CSC[C@@H](C(=O)N[C@@H](CN)C(=O)NCCOCCOCC(=O)NCCCCCCCCCCC(=O)O)NC(=O)[C@H](C(C)O)NC(=O)[C@H](C(C)C)NC(=O)[C@H](CC2CCCCC2)NC(=O)[C@H](CC(N)=O)NC(=O)[C@@H](CC(C)C)NC(=O)[C@H](C)N(C)C1=O (stereo partly drawn) [Example 2068] ({CH2CO}-[4Pal]YDWV[Bip][Ile(3ξ)][NMeA][dL]N[Cha]V[Thr(3ξ)]C[Dap][AEEA][Aun]-OH; thioether N-14)
